Reference: patent publication US7396837B2, “Antitumoral analogs of lamellarins” (Pharma Mar, S.A.U., priority 2002, dated 2008)
Like-named read-outs stand apart in the source and are kept apart here.

What was measured:
Assay type in all cases: cell-based
SKOV-3 = assay: SRB colorimetric cell growth inhibition assay, SKOV-3; details: Homo sapiens
Description: Inhibition of Cell Growth by Colorimetric Assay.
A colorimetric type of assay, using sulforhodamine B (SRB) reaction has been adapted for a quantitative measurement of cell growth and viability (following the technique described by P. A. Skehan, et al., J. Natl. Cancer Inst. 1990, 82, 1107-1112).
This form of assay employs 96 well cell culture microplates of 9 mm diameter (T. Mosmann et al., J. of Immunological Methods 1983, 65, 55-63; G. T. Faircloth et al., J. of Tissue and Culture Methods 1988, 11, 201-205).
Most of the cell lines are obtained from American Type Culture Collection (ATCC) derived from different human cancer types.
The values for mean +/− SD of data from triplicate wells are calculated. Some parameters for cellular responses can be calculated: GI=growth inhibition, TGI=total growth inhibition (cytostatic effect) and LC=cell killing (cytotoxic effect).

IGROV = assay: SRB colorimetric cell growth inhibition assay, IGROV; details: IGROV; for GI50: GI=growth inhibition, read-out: GI50 IGROV
In short: (§1)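 Read-out: sulforhodamine B colorimetry of surviving cell mass after continued exposure of human tumour lines to sample. Values are means ± SD of three wells, expressed as GI, TGI or LC.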

PANC-1 = assay: SRB colorimetric cell growth inhibition assay, PANC-1; details: for GI50: GI=growth inhibition, read-out: GI50 PANC-1
In short: as §1

LoVo = assay: SRB colorimetric cell growth inhibition assay, LoVo; details: for GI50: GI=growth inhibition, read-out: GI50 LOVO
In short: as §1

SK-MEL-28 = assay: SRB colorimetric cell growth inhibition assay, SK-MEL-28; details: for GI50: GI=growth inhibition, read-out: GI50 MEL-28
In short: as §1

IGROV-ET = assay: SRB colorimetric cell growth inhibition assay, IGROV-ET (ET-743 resistant); details: for GI50: GI=growth inhibition, read-out: GI50 IGROV-ET
In short: as §1

LoVo-Dox = assay: SRB colorimetric cell growth inhibition assay, LoVo-Dox (MDR); details: for GI50: GI=growth inhibition, read-out: GI50 LOVO-DOX
In short: as §1

DU-145 = assay: SRB colorimetric cell growth inhibition assay, DU-145; details: for GI50: GI=growth inhibition, read-out: GI50 DU-145
In short: as §1

K-562 = assay: SRB colorimetric cell growth inhibition assay, K-562; details: for GI50: GI=growth inhibition, read-out: GI50 K-562
In short: as §1

SK-BR-3 = assay: SRB colorimetric cell growth inhibition assay, SK-BR-3; details: for GI50: GI=growth inhibition, read-out: GI50 SK-BR-3
In short: as §1

A-549 = assay: SRB colorimetric cell growth inhibition assay, A-549; details: for GI50: GI=growth inhibition, read-out: GI50 A-549
In short: as §1

HT-29 = assay: SRB colorimetric cell growth inhibition assay, HT-29; details: for GI50: GI=growth inhibition, read-out: GI50 HT-29
In short: as §1

HeLa = assay: SRB colorimetric cell growth inhibition assay, HeLa; details: HELA
In short: as §1

HeLa-APL = assay: SRB colorimetric cell growth inhibition assay, HeLa-APL (aplidine resistant); details: HELA-APL
In short: as §1

LNCaP = assay: SRB colorimetric cell growth inhibition assay, LNCaP; details: LN-caP
In short: as §1

[1] = total growth inhibition (cytostatic effect)

COc1cc(-c2c3c4cc(OC)c(OC(=O)[C@H](N)C(C)C)cc4oc(=O)c3n3ccc4c(OC(=O)[C@H](N)C(C)C)c(OC)c(OC)cc4c23)ccc1OC(=O)[C@H](N)C(C)C [Compound 43]
GI50 (SKOV-3; SK-OV-3, SKOV-3, GI=growth inhibition, read-out: GI50 SKOV-3): 146 nM
CC50 (SKOV-3; SK-OV-3, read-out: LC50 SKOV-3): 12100 nM
IC (TGI) (SKOV-3; SK-OV-3, SKOV-3, TGI=total growth inhibition (cytostatic effect), read-out: TGI SKOV-3): 1140 nM
CC50 (IGROV; Homo sapiens, read-out: LC50 IGROV, IGROV, LC=cell killing (cytotoxic effect)): 8940 nM
GI50 (IGROV; Homo sapiens): 418 nM
IC (TGI) (IGROV; Homo sapiens, TGI=total growth inhibition (cytostatic effect), read-out: TGI IGROV): 2140 nM
GI50 (PANC-1; Homo sapiens, PANC-1, PANC-1): 1490 nM
IC (TGI) (PANC-1; Homo sapiens, PANC-1, PANC-1, TGI=total growth inhibition (cytostatic effect), read-out: TGI PANC-1): 6570 nM
CC50 (PANC-1; Homo sapiens, PANC-1, read-out: LC50 PANC-1, PANC-1, LC=cell killing (cytotoxic effect)): 12100 nM
CC50 (LoVo; Homo sapiens, LoVo, read-out: LC50 LOVO, LOVO, LC=cell killing (cytotoxic effect)): 12100 nM
GI50 (LoVo; Homo sapiens, LoVo): 635 nM
IC (TGI) (LoVo; Homo sapiens, LoVo, TGI=total growth inhibition (cytostatic effect), read-out: TGI LOVO): 3720 nM
GI50 (SK-MEL-28; Homo sapiens, SK-MEL-28, MEL-28): 498 nM
CC50 (SK-MEL-28; Homo sapiens, SK-MEL-28, read-out: LC50 MEL-28, MEL-28, LC=cell killing (cytotoxic effect)): 12100 nM
IC (TGI) (SK-MEL-28; Homo sapiens, SK-MEL-28, MEL-28, TGI=total growth inhibition (cytostatic effect), read-out: TGI MEL-28): 12100 nM
GI50 (IGROV-ET; Homo sapiens, IGROV-ET): 98 nM
IC (TGI) (IGROV-ET; Homo sapiens, IGROV-ET, TGI=total growth inhibition (cytostatic effect), read-out: TGI IGROV-ET): 3240 nM
CC50 (IGROV-ET; Homo sapiens, read-out: LC50 IGROV-ET, IGROV-ET, LC=cell killing (cytotoxic effect)): 12100 nM
GI50 (LoVo-Dox; Homo sapiens, LOVO-DOX): 937 nM
IC (TGI) (LoVo-Dox; Homo sapiens, LOVO-DOX, TGI=total growth inhibition (cytostatic effect), read-out: TGI LOVO-DOX): 3140 nM
CC50 (LoVo-Dox; Homo sapiens, read-out: LC50 LOVO-DOX, LOVO-DOX, LC=cell killing (cytotoxic effect)): 9840 nM
GI50 (DU-145; Homo sapiens, DU-145, DU-145): 57.4 nM
IC (TGI) (DU-145; Homo sapiens, DU-145, DU-145, TGI=total growth inhibition (cytostatic effect), read-out: TGI DU-145): 301 nM
CC50 (DU-145; Homo sapiens, DU-145, read-out: LC50 DU-145, DU-145, LC=cell killing (cytotoxic effect)): 12100 nM
GI50 (K-562; Homo sapiens, K562, K-562): 118 nM
IC (TGI) (K-562; Homo sapiens, K562, K-562, TGI=total growth inhibition (cytostatic effect), read-out: TGI K-562): 565 nM
CC50 (K-562; Homo sapiens, K562, read-out: LC50 K-562, K-562, LC=cell killing (cytotoxic effect)): 12100 nM
GI50 (SK-BR-3; Homo sapiens, SK-BR-3, SK-BR-3): 212 nM
IC (TGI) (SK-BR-3; Homo sapiens, SK-BR-3, SK-BR-3, TGI=total growth inhibition (cytostatic effect), read-out: TGI SK-BR-3): 1100 nM
CC50 (SK-BR-3; Homo sapiens, SK-BR-3, read-out: LC50 SK-BR-3, SK-BR-3, LC=cell killing (cytotoxic effect)): 7900 nM
GI50 (A-549; Homo sapiens, A549, A-549): 1900 nM
IC (TGI) (A-549; Homo sapiens, A549, A-549, TGI=total growth inhibition (cytostatic effect), read-out: TGI A-549): 12100 nM
CC50 (A-549; Homo sapiens, A549, read-out: LC50 A-549, A-549, LC=cell killing (cytotoxic effect)): 12100 nM
CC50 (HT-29; Homo sapiens, HT-29, read-out: LC50 HT-29, HT-29, LC=cell killing (cytotoxic effect)): 12100 nM
GI50 (HT-29; Homo sapiens, HT-29): 12100 nM
IC (TGI) (HT-29; Homo sapiens, HT-29, TGI=total growth inhibition (cytostatic effect), read-out: TGI HT-29): 12100 nM

COc1cc(-c2c3c4cc(OC)c(OC(=O)[C@H](C)N)cc4oc(=O)c3n3ccc4cc(O)c(OC)cc4c23)ccc1O.Cl [Compound 240]
GI50 (HeLa; GI=growth inhibition, read-out: GI50 HELA): 57.5 nM
CC50 (HeLa; cell killing (cytotoxic effect), read-out: LC50 HELA): 1400 nM
TGI HELA (HeLa; [1]): 1.49E−07 Molar
GI50 (HeLa-APL; GI=growth inhibition, read-out: GI50 HELA-APL): 341 nM
CC50 (HeLa-APL; cell killing (cytotoxic effect), read-out: LC50 HELA-APL): 7610 nM
TGI HELA-APL (HeLa-APL; [1]): 1.40E−06 Molar
GI50 (IGROV): 136 nM
CC50 (IGROV; cell killing (cytotoxic effect), read-out: LC50 IGROV): 3640 nM
TGI IGROV (IGROV; [1]): 5.22E−07 Molar
GI50 (PANC-1; PANC-1): 70.5 nM
CC50 (PANC-1; PANC-1, cell killing (cytotoxic effect), read-out: LC50 PANC-1): 8860 nM
TGI PANC-1 (PANC-1; PANC-1, total growth inhibition (cytostatic effect)): 6.82E−07 Molar
GI50 (LoVo; LOVO): 170 nM
CC50 (LoVo; LOVO, cell killing (cytotoxic effect), read-out: LC50 LOVO): 1520 nM
TGI LOVO (LoVo; LOVO, total growth inhibition (cytostatic effect)): 5.09E−07 Molar
GI50 (SK-MEL-28; MEL-28): 99.7 nM
CC50 (SK-MEL-28; MEL-28, cell killing (cytotoxic effect), read-out: LC50 MEL-28): 1440 nM
TGI MEL-28 (SK-MEL-28; MEL-28, total growth inhibition (cytostatic effect)): 3.81E−07 Molar
GI50 (IGROV-ET; IGROV-ET): 82.4 nM
CC50 (IGROV-ET; IGROV-ET, cell killing (cytotoxic effect), read-out: LC50 IGROV-ET): 12900 nM
TGI IGROV-ET (IGROV-ET; IGROV-ET, total growth inhibition (cytostatic effect)): 3.66E−07 Molar
GI50 (LoVo-Dox; LOVO-DOX): 461 nM
CC50 (LoVo-Dox; LOVO-DOX, cell killing (cytotoxic effect), read-out: LC50 LOVO-DOX): 16500 nM
TGI LOVO-DOX (LoVo-Dox; LOVO-DOX, total growth inhibition (cytostatic effect)): 1.15E−06 Molar
GI50 (LNCaP; GI=growth inhibition, read-out: GI50 LN-caP): 4090 nM
CC50 (LNCaP; cell killing (cytotoxic effect), read-out: LC50 LN-caP): 16500 nM
TGI LN-caP (LNCaP; [1]): 1.65E−05 Molar
GI50 (DU-145; DU-145): 60.6 nM
CC50 (DU-145; DU-145, cell killing (cytotoxic effect), read-out: LC50 DU-145): 16500 nM
TGI DU-145 (DU-145; DU-145, total growth inhibition (cytostatic effect)): 1.34E−07 Molar
GI50 (K-562; K-562): 124 nM
CC50 (K-562; K-562, cell killing (cytotoxic effect), read-out: LC50 K-562): 2090 nM
TGI K-562 (K-562; K-562, total growth inhibition (cytostatic effect)): 4.50E−07 Molar
GI50 (SK-BR-3; SK-BR-3): 59.3 nM
CC50 (SK-BR-3; SK-BR-3, cell killing (cytotoxic effect), read-out: LC50 SK-BR-3): 16500 nM
TGI SK-BR-3 (SK-BR-3; SK-BR-3, total growth inhibition (cytostatic effect)): 3.43E−07 Molar
GI50 (A-549; A-549): 126 nM
CC50 (A-549; A-549, cell killing (cytotoxic effect), read-out: LC50 A-549): 1510 nM
TGI A-549 (A-549; A-549, total growth inhibition (cytostatic effect)): 4.70E−07 Molar
GI50 (HT-29; HT-29): 1640 nM
CC50 (HT-29; HT-29, cell killing (cytotoxic effect), read-out: LC50 HT-29): 16500 nM
TGI HT-29 (HT-29; HT-29, total growth inhibition (cytostatic effect)): 1.59E−05 Molar
